The values that follow come from US10669240B2, “5-substituted indazole-3-carboxamides and preparation and use thereof” (Samumed, LLC, priority 2014, dated 2020).

In assay [1] the test system is Wnt activity (Wnt-responsive SP5 promoter luciferase reporter in SW480 cells). Description: Wnt activity reporter assay: SW480 cells with SP5 promoter-driven firefly luciferase. The class given is cell-based. The settings on record: Homo sapiens, 24 h after compound addition, read-out: Wnt inhibition. From the text:
The above synthesized compounds were screened using the assay procedure for Wnt activity described below.
Reporter cell lines were generated by stably transducing cells of cancer cell lines (e.g., colon cancer) with a lentiviral construct that include a Wnt-responsive promoter driving expression of the firefly luciferase gene.
Lentiviral constructs were made in which the SP5 promoter, a promoter having eight TCF/LEF binding sites derived from the SP5 promoter, was linked upstream of the firefly luciferase gene. The lentiviral constructs included a hygromycin resistance gene as a selectable marker. The SP5 promoter construct was used to transduce SW480 cells, a colon cancer cell line having a mutated APC gene that generates a truncated APC protein, leading to de-regulated accumulation of β-catenin.
Cultured SW480 cells bearing a reporter construct were distributed at approximately 10,000 cells per well into 384 well multiwell plates. Compounds were then added to the wells in half-log dilutions using a three micromolar top concentration. A series of control wells for each cell type received only buffer and compound solvent. Twenty-four hours after the addition of compound, reporter activity for luciferases was assayed, for example, by addition of the BrightGlo luminescence reagent (Promega) and the Victor3 plate reader (Perkin Elmer). Readings were normalized to DMSO only treated cells, and normalized activities were then used for the IC50 calculations.
(In general: Reporter assays use an easily measured gene product as a stand-in for the process of interest.)

Assay [2] has as its target DYRK1A (Homo sapiens (Human), UniProt Q13627). In words: DYRK1A activity Tau assay: pSer396 Tau in SH-SY5Y cells by ELISA / western blot. The class given is cell-based. The settings on record: overnight (16-18 h) exposure.

By EC50 is commonly meant the concentration that produces a half-maximal response. A higher EC50 goes with a need for much substance.

As for `O=C(NC1CCCCC1)c1n[nH]c2ccc(-c3cccnc3)cc12` [Compound 4, N-Cyclohexyl-5-(pyridin-3-yl)-1H-indazole-3-carboxamide], the IC50 in assay [1] is 4460 nM. Further, the EC50 in assay [2] was found to be 35 nM.

Regarding `O=C(NC1CCC1)c1n[nH]c2ccc(-c3cccnc3)cc12` [Compound 5, N-Cyclobutyl-5-(pyridin-3-yl)-1H-indazole-3-carboxamide], the IC50 in assay [1] was determined as 11900 nM. Besides, a half-maximal effect in assay [2] (EC50) was put at 18 nM.

Consider `O=C(NC1CC1)c1n[nH]c2ccc(-c3cccnc3)cc12` [Compound 6, N-Cyclopropyl-5-(pyridin-3-yl)-1H-indazole-3-carboxamide], for which the IC50 in assay [1] was determined as 5530 nM. Moreover, in assay [2], the EC50 stood at 22 nM.

With `CN1CCC(NC(=O)c2n[nH]c3ccc(-c4cncc(CN5CCC5)c4)cc23)CC1` [Compound 8, 5-(5-(Azetidin-1-ylmethyl)pyridin-3-yl)-N-(1-methylpiperidin-4-yl)-1H-indazole-3-carboxamide], the IC50 in assay [1] is 6290 nM. This compound yielded an EC50 in assay [2] of 53 nM.

Regarding `O=C(NC1CC1)c1n[nH]c2ccc(-c3cncc(CN4CCCCC4)c3)cc12` [Compound 9, N-Cyclopropyl-5-(5-(piperidin-1-ylmethyl)pyridin-3-yl)-1H-indazole-3-carboxamide], the IC50 in assay [1] was 2910 nM. For the same compound, the EC50 in assay [2] is 2 nM.

As for `O=C(NC1CC1)c1n[nH]c2ccc(-c3cc(F)cc(CN4CCCCC4)c3)cc12` [Compound 11, N-Cyclopropyl-5-(3-fluoro-5-(piperidin-1-ylmethyl)phenyl)-1H-indazole-3-carboxamide], in assay [1], the IC50 is 7950 nM. The EC50 in assay [2] stood at 36 nM.

For the compound `CN1CCC(NC(=O)c2n[nH]c3ccc(-c4ccccc4F)cc23)CC1` [Compound 16, 5-(2-Fluorophenyl)-N-(1-methylpiperidin-4-yl)-1H-indazole-3-carboxamide], the IC50 in assay [1] is 14600 nM. Moreover, it took 335 nM to reach a half-maximal effect in assay [2] (EC50).

In the case of `CN1CCC(NC(=O)c2n[nH]c3ccc(-c4ccc(F)c(F)c4)cc23)CC1` [Compound 19, 5-(3,4-Difluorophenyl)-N-(1-methylpiperidin-4-yl)-1H-indazole-3-carboxamide], the IC50 in assay [1] was determined as 6800 nM. A half-maximal response in assay [2] (EC50) required 848 nM.

Turning to `CN1CCC(NC(=O)c2n[nH]c3ccc(-c4cc(F)cc(F)c4)cc23)CC1` [Compound 21, 5-(3,5-Difluorophenyl)-N-(1-methylpiperidin-4-yl)-1H-indazole-3-carboxamide], the IC50 in assay [1] turned out to be 1310 nM. For the same compound, the EC50 in assay [2] stood at 744 nM.

Consider `O=C(NCc1cccc(F)c1)c1n[nH]c2ccc(-c3cncc(CN4CCCCC4)c3)cc12` [Compound 27, N-(3-Fluorobenzyl)-5-(5-(piperidin-1-ylmethyl)pyridin-3-yl)-1H-indazole-3-carboxamide], for which the IC50 in assay [1] stood at 1760 nM. Besides, the EC50 in assay [2] came to 2 nM.

Turning to `O=C(NCc1cc(F)cc(F)c1)c1n[nH]c2ccc(-c3cncc(CN4CCCCC4)c3)cc12` [Compound 28, N-(3,5-Difluorobenzyl)-5-(5-(piperidin-1-ylmethyl)pyridin-3-yl)-1H-indazole-3-carboxamide], in assay [1], the IC50 was 3100 nM. In assay [2], this compound gave an EC50 of 2 nM.

Turning to `O=C(NCc1ccccc1)c1n[nH]c2ccc(-c3cc(F)cc(CN4CCCCC4)c3)cc12` [Compound 29, N-Benzyl-5-(3-fluoro-5-(piperidin-1-ylmethyl)phenyl)-1H-indazole-3-carboxamide], the IC50 in assay [1] is 3470 nM. The compound further gave an EC50 in assay [2] of 117 nM.

In the case of `O=C(NC1(c2ccccc2)CC1)c1n[nH]c2ccc(-c3cncc(CN4CCC4)c3)cc12` [Compound 33, 5-(5-(Azetidin-1-ylmethyl)pyridin-3-yl)-N-(1-phenylcyclopropyl)-1H-indazole-3-carboxamide], the IC50 in assay [1] is 6700 nM. The compound also had an EC50 in assay [2] of 63 nM.

With `O=C(NC1(c2ccccc2)CC1)c1n[nH]c2ccc(-c3cncc(CN4CCC(F)(F)C4)c3)cc12` [Compound 35, 5-(5-((3,3-Difluoropyrrolidin-1-yl)methyl)pyridin-3-yl)-N-(1-phenylcyclopropyl)-1H-indazole-3-carboxamide], the IC50 in assay [1] turned out to be 6390 nM. The EC50 in assay [2] stood at 85 nM.

For `O=C(N[C@@H]1C[C@@H]1c1ccccc1)c1n[nH]c2ccc(-c3cccnc3)cc12` [Compound 38, N-((1R,2R)-2-Phenylcyclopropyl)-5-(pyridin-3-yl)-1H-indazole-3-carboxamide], the IC50 in assay [1] is 1570 nM. This compound returned an EC50 in assay [2] of 4 nM.

With `O=C(N[C@@H]1C[C@@H]1c1ccccc1)c1n[nH]c2ccc(-c3cncc(CN4CCCCC4)c3)cc12` [Compound 39, N-((1R,2R)-2-Phenylcyclopropyl)-5-(5-(piperidin-1-ylmethyl)pyridin-3-yl)-1H-indazole-3-carboxamide], the IC50 in assay [1] was 490 nM. Besides, the EC50 in assay [2] was determined as 1 nM.

On to `Cc1cc2[nH]nc(C(=O)Nc3cccnc3)c2cc1-c1cccnc1` [Compound 44, 6-Methyl-N,5-di(pyridin-3-yl)-1H-indazole-3-carboxamide], for which the IC50 in assay [1] turned out to be 6120 nM. The same compound displayed a 50% effective concentration (EC50) in assay [2] of 23 nM.

Take `O=C(Nc1ccccn1)c1n[nH]c2ccc(-c3cncc(CN4CCCCC4)c3)cc12` [Compound 56, 5-(5-(Piperidin-1-ylmethyl)pyridin-3-yl)-N-(pyridin-2-yl)-1H-indazole-3-carboxamide]: in assay [1], the IC50 is 1100 nM. Further, the EC50 in assay [2] turned out to be 3 nM.

In the case of `O=C(Nc1ncc(F)cc1F)c1n[nH]c2ccc(-c3cncc(CN4CCCCC4)c3)cc12` [Compound 58, N-(3,5-Difluoropyridin-2-yl)-5-(5-(piperidin-1-ylmethyl)pyridin-3-yl)-1H-indazole-3-carboxamide], the IC50 in assay [1] came to 4010 nM. The compound further yielded an EC50 in assay [2] of 3 nM.

For `CN(C(=O)c1n[nH]c2ccc(-c3cncc(CN4CCCCC4)c3)cc12)c1cccnc1` [Compound 76, N-Methyl-5-(5-(piperidin-1-ylmethyl)pyridin-3-yl)-N-(pyridin-3-yl)-1H-indazole-3-carboxamide], the IC50 in assay [1] was determined as 6500 nM. In assay [2], this compound came in with an EC50 of 990 nM.

`O=C(Nc1cccc2cccnc12)c1n[nH]c2ccc(-c3cncc(CN4CCCCC4)c3)cc12` [Compound 81, 5-(5-(Piperidin-1-ylmethyl)pyridin-3-yl)-N-(quinolin-8-yl)-1H-indazole-3-carboxamide]: the IC50 in assay [1] was 7660 nM. Further, the response in assay [2] was half-maximal at 312 nM (EC50).

In the case of `NC(=O)c1n[nH]c2ccc(-c3cncc(CN4CCCCC4)c3)cc12` [Compound 89, 5-(5-(Piperidin-1-ylmethyl)pyridin-3-yl)-1H-indazole-3-carboxamide], in assay [1], the IC50 stood at 1960 nM. The EC50 in assay [2] worked out at 6 nM.

As to `CN1CCC(NC(=O)c2n[nH]c3ccc(-c4cncc(C(F)(F)F)c4)cc23)CC1` [Compound 95, N-(1-Methylpiperidin-4-yl)-5-(5-(trifluoromethyl)pyridin-3-yl)-1H-indazole-3-carboxamide], the IC50 in assay [1] worked out at 1070 nM. This compound also came in with a half-maximal effective concentration (EC50) in assay [2] of 261 nM.

Regarding `O=C(Nc1cccnc1)c1n[nH]c2ccc(-c3cccc(F)c3F)cc12` [Compound 96, 5-(2,3-Difluorophenyl)-N-(pyridin-3-yl)-1H-indazole-3-carboxamide], the IC50 in assay [1] is 4670 nM. The compound also yielded an EC50 in assay [2] of 134 nM.

Take `O=C(NC1CCNCC1)c1n[nH]c2ccc(-c3cccc(F)c3F)cc12` [Compound 254, 5-(2,3-Difluorophenyl)-N-(piperidin-4-yl)-1H-indazole-3-carboxamide]: the IC50 in assay [1] worked out at 7900 nM. In addition, in assay [2], a half-maximal effect (EC50) was put at 66 nM.

In the case of `CN1CCC(NC(=O)c2n[nH]c3ccc(-c4cc(CN5CCCCC5)cc(F)c4F)cc23)CC1` [Compound 272, 5-(2,3-Difluoro-5-(piperidin-1-ylmethyl)phenyl)-N-(1-methylpiperidin-4-yl)-1H-indazole-3-carboxamide], the IC50 in assay [1] amounted to 1700 nM. The same compound yielded an EC50 in assay [2] of 15 nM.

With `CC(C)(C)N1CCC(NC(=O)c2n[nH]c3ccc(-c4cccnc4)cc23)CC1` [Compound 291, N-(1-(tert-Butyl)piperidin-4-yl)-5-(pyridin-3-yl)-1H-indazole-3-carboxamide], in assay [1], the IC50 is 1010 nM. Moreover, the half-maximal effective concentration (EC50) in assay [2] came out at 21 nM.

On to `CC(C)(C)CN1CCC(NC(=O)c2n[nH]c3ccc(-c4cccnc4)cc23)CC1` [Compound 329, N-(1-Neopentylpiperidin-4-yl)-5-(pyridin-3-yl)-1H-indazole-3-carboxamide], for which the IC50 in assay [1] was 4650 nM. This compound came in with an EC50 in assay [2] of 7 nM.

Turning to `O=C(NC1CCN(CCF)CC1)c1n[nH]c2ccc(-c3cccc(F)c3F)cc12` [Compound 1160, 5-(2,3-Difluorophenyl)-N-(1-(2-fluoroethyl)piperidin-4-yl)-1H-indazole-3-carboxamide], in assay [1], the IC50 stood at 1100 nM. This compound also registered an EC50 in assay [2] of 40 nM.

Regarding `O=C(NC1CCN(C2COC2)CC1)c1n[nH]c2ccc(-c3cccc(F)c3F)cc12` [Compound 1164, 5-(2,3-Difluorophenyl)-N-(1-(oxetan-3-yl)piperidin-4-yl)-1H-indazole-3-carboxamide], the IC50 in assay [1] was found to be 1400 nM. This compound also registered an EC50 in assay [2] of 49 nM.

`O=C(NCCN1CCCC1)c1n[nH]c2ccc(-c3cccc(F)c3F)cc12` [Compound 1166, 5-(2,3-Difluorophenyl)-N-(2-(pyrrolidin-1-yl)ethyl)-1H-indazole-3-carboxamide]: in assay [1], the IC50 is 2400 nM. The compound further displayed an EC50 in assay [2] of 79 nM.
